Columns and labels:
hBUB1 = target: T1, hBUB1 (Homo sapiens, UniProt O43683); experiment: hBUB1 kinase activity assay (biochemical fluorescence polarization assay, IMAP); conditions: BUB1/BUB3 3.26 nM, ATP 15 µM, BUB1/BUB3 substrate 75 nM; N=2, n=2; read-out: hBUB1 pIC50 (converted)
T1 construct: purchased Carna Biosciences 05-187
Experimental: This protocol describes how the Kinase Activity Assay was performed to determine pIC50 values of compounds of general formula (I) against hBUB1.
Assays were performed in 384-well plates (Greiner, black, flat bottom, 781076) by sequential addition (final concentrations are indicated) of inhibitor (5 µL, 0.3 nM - 1 µM or 3 nM - 10 µM), BUB1/BUB3 (5 µL, 3.26 nM, Carna Biosciences (05-187), lot: 15CBS-0644 D), ATP (5 µL, 15 µM) and BUB1/BUB3 substrate (5 µL, 75 nM, Carna Biosciences (05-187MSSU)), all as 4x working solutions. The final concentration of DMSO was 1%. Assay reactions were stopped by addition of IMAP progressive binding reagent (20 µL, 1200x diluted, Molecular Devices (R8155), lot: 3117896). Each assay included the following controls: (i) a background control (treated with vehicle instead of inhibitor and BUB1/BUB3 substrate), (ii) MIN controls (treated with 5 µM BAY1816032 (MedChem Express) as inhibitor, used as 0% BUB1 activity) and (iii) MAX controls (treated with vehicle instead of inhibitor, used as 100% BUB1 activity). All inhibitors were tested in two separate assays and all inhibitor concentrations were tested in duplicate per assay (N=2, n=2).
For each assay, assay buffer (AB) was freshly prepared and consisted of 20 mM HEPES (prepared by diluting 1 M HEPES, pH 7.2), 5 mM MgCl2, 0.01% Tween-20 and 1 mM DTT. Stocks of inhibitors (in DMSO) were diluted in AB to obtain 4x working solutions (4% DMSO) and 5 µL was added to the assay plate. BUB1/BUB3 (3.26 µM (486 µg/mL) in storage buffer) was diluted in AB to obtain 13.0 nM of which 5 µL was added to all wells of the assay plate. The assay plate was centrifuged (1 min, 200 g) and incubated at RT for 30 min. ATP (4 mM in MilliQ) was diluted in AB to obtain 60 µM of which 5 µL was added to each well. BUB1/BUB3 substrate (1 mM) was diluted in 20 mM HEPES (prepared by diluting 1 M HEPES (pH 7.2) in MilliQ) to obtain 80 µM (this solution was freshly prepared every assay) and further diluted in AB to obtain 300 nM after which 5 µL was added to each well of the assay plate except for background control wells. The assay plate was centrifuged (1 min, 200 g) and incubated at RT in the dark for 180 min. IMAP progressive binding buffer A (5x) and IMAP progressive binding buffer B (5x) were mixed in a ratio to obtain 30% buffer A and 70% buffer B, which was subsequently diluted 5x in MilliQ. IMAP progressive binding reagent was diluted 600x in aforementioned mixture of buffer A and B (to obtain a 2x working solution) of which 20 µL was added to each well of the assay plate. The assay plate was centrifuged (1 min, 200 g) and incubated at RT in the dark for 90 min. Fluorescence polarization was measured on a CLARIOstar plate reader using the following settings: (i) optic settings → excitation = F: 482-16, dichroic = F: LP 504, emission = F: 530-40, (ii) optic = top optic, (iii) speed/precision = maximum precision, (iv) focus adjustment was performed for every assay and (v) gain adjustment was done by setting the target mP value to 35 mP for one of the MIN control wells. Data was normalized between MIN and MAX controls and data was plotted using GraphPad Prism 8.0 using "Nonlinear regression (curve fit)" and "log(inhibitor) vs. normalized response - Variable slope" to determine pIC50 values.
Inhibition is indicated as pIC50 ("-" = not measured). Compounds having an activity designated as "A" provided an pIC50 ≥ 7.0 (IC50 ≤100 nM); compounds having an activity designated as "B" provided an 6.3 ≤ pIC50 < 7.0 (100 nM<IC50 ≤ 500 nM); compounds having an activity designated as "C" provided an 6.0 ≤ pIC50 < 6.3 (500 nM < IC50 ≤ 1 µM); compounds having an activity designated as "D" provided an 6.0 < pIC50 ≤ 5.0 (1 µM < IC50 ≤ 10 µM); and compounds having an activity designated as "E" provided an pIC50 < 5.0 (IC50 >10 µM).

U2OS cells = experiment: Cellular proliferation assay (SRB proliferation assay); format: cell-based; conditions: Homo sapiens, 72 h treatment, SRB staining, N=2, n=3
Experimental: This protocol describes how the Cellular Proliferation Assay was performed to determine pIC50 values of compounds of general formula (I) against U2OS cells.
U2OS (human osteosarcoma) cells were purchased at ATCC and were tested on regular basis for mycoplasma contamination. Cultures were discarded after 2-3 months of use. Cells were cultured at 37°C under 7% CO2 in DMEM (Sigma Aldrich, D6546) supplemented with GlutaMAX (2 mM, ThermoFisher), 10% (v/v) heat-inactivated newborn calf serum (Seradigm), penicillin and streptomycin (200 µg/mL each, Duchefa) (complete medium). Medium was refreshed every 2-3 days and cells were passaged by trypsinization twice a week at 80-90% confluence. Cell viability was assessed by Trypan Blue exclusion and cell quantification using a TC20™ Automated Cell Counter (Bio-Rad).
Assays were performed in 96-well plates (Greiner, Cellstar, 655180) by seeding (day 0), treatment (day 1) and subsequent incubation for 72 h. Cells were fixed, stained and staining was subsequently dissolved after which absorbance was measured. Each assay included the following controls: (i) a background control (to which no cells were added), (ii) t0 controls (separate assay plate in which cells were fixed on day 1, used as 0% proliferation), (iii) nontreated controls (present in each assay plate, treated with vehicle and used as 100% proliferation). Cells were treated with different concentrations of indicated inhibitor. All inhibitors were tested in two separate assays and all inhibitor concentrations were tested in triplicate per assay (N=2, n=3).
For each assay, U2OS cells from 10 cm dishes were seeded into 96-well plates (3,000 cells/well) and subsequently incubated overnight to allow for cell adherence. Stocks of inhibitor and vehicle (all in DMSO) were diluted in complete medium to obtain 2x working solutions (1% DMSO). Cell medium was replaced by fresh complete medium (50 µL), treatment was started by addition of the 2x working solutions (50 µL) and plates were incubated at 37°C for 72 h. Cell medium was replaced by fresh serum free medium (100 µL) and cells were fixed by addition of 30 µL 50% (w/v) aq. trichloroacetic acid after which the plates were incubated at 4°C for 60 min. Wells were emptied by shaking the plates upside down after which wells were washed three times with demineralized water and air-dried overnight. To each well, 60 µL of SRB solution (0.4% (w/v) in 1% aq. acetic acid) was added and plates were incubated for 30 min. The excess SRB was removed and the wells were washed three times with 1% aq. acetic acid and air-dried overnight. Bound SRB was redissolved by addition of 150 µL 10 mM TRIS (free-base) and absorbance was measured at 540 nm on a CLARIOstar plate reader. Data was normalized between t0 and nontreated controls and plotted using GraphPad Prism 8.0 using "Nonlinear regression (curve fit)" and "log(inhibitor) vs. normalized response - Variable slope" to determine pIC50 values.
Inhibition is indicated as pIC50 ("-" = not measured). Compounds having an activity designated as "A" provided an pIC50 ≥ 6.0 (IC50 ≤1 µM); compounds having an activity designated as "B" provided an 5.3 ≤ pIC50 < 6.0 (1 µM<IC50 ≤ 5 µM); compounds having an activity designated as "C" provided an 5.0 ≤ pIC50 < 5.3 (5 µM < IC50 ≤ 10 µM); compounds having an activity designated as "D" provided an 5.0 < pIC50 ≤ 4.7 (10 µM < IC50 ≤ 20 µM); and compounds having an activity designated as "E" provided an pIC50 < 4.7 (IC50 >20 µM).

T1 sequence (O43683 whole entry): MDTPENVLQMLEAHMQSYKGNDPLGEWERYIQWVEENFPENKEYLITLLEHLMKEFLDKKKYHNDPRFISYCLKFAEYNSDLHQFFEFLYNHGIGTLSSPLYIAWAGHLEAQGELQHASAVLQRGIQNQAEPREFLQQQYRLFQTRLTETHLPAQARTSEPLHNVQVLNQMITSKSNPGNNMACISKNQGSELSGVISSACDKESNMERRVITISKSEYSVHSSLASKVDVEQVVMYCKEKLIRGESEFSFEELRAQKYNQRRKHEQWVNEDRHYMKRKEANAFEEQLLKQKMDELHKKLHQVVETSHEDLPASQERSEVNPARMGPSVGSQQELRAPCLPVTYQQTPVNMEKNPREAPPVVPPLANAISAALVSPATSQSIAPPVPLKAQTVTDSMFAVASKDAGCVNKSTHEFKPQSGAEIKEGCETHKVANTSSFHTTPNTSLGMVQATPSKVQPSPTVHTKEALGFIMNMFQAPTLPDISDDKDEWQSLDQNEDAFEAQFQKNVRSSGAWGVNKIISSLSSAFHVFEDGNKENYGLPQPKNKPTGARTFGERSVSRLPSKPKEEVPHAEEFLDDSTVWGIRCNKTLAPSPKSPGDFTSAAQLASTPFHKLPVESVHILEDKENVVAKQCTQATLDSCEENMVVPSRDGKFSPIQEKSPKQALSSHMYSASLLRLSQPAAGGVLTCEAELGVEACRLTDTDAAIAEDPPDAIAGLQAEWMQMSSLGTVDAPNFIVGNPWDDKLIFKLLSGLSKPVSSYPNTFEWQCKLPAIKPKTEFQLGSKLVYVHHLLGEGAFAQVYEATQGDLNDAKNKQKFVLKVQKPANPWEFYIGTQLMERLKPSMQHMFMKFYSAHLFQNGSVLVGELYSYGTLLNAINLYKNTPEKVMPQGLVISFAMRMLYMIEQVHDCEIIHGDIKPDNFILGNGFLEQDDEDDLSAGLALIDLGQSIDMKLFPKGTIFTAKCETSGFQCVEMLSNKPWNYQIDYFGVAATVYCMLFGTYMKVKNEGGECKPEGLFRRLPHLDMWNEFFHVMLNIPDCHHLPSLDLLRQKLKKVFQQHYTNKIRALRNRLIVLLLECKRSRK
T1 sequence (O43684 whole entry partner): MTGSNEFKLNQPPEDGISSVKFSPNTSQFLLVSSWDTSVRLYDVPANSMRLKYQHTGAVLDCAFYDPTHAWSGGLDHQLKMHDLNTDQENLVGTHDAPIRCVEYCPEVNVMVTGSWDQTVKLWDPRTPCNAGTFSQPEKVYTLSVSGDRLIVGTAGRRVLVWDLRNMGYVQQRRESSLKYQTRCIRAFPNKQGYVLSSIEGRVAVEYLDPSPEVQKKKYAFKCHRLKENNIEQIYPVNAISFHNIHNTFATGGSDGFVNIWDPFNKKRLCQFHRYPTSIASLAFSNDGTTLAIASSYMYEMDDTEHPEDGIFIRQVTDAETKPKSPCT

| Compound | IC50 (hBUB1) [nM] | IC50 (U2OS cells) [nM] |
| --- | --- | --- |
| Fc1ccc(Cl)cc1-c1nccc(Nc2c[nH]nc2-c2nc3cc(CN4CCOCC4)ccc3[nH]2)n1 [Compound 47, 2-(5-Chloro-2-fluorophenyl)-N-(3-(5-(morpholinomethyl)-1H-benzo[d]imidazol-2-yl)-1H-pyrazol-4-yl)pyrimidin-4-amine] | ≤ 100 | 1000 to 5010 |
| COc1cnc(-c2cccc(Cl)c2F)nc1Nc1c[nH]nc1-c1nc2cc(CN3CCOCC3)ccc2[nH]1 [Compound 55, 2-(3-Chloro-2-fluorophenyl)-5-methoxy-N-(3-(5-(morpholinomethyl)-1H-benzo[d]imidazol-2-yl)-1H-pyrazol-4-yl)pyrimidin-4-amine] | ≤ 100 | ≤ 1000 |
| C#Cc1ccc(F)c(-c2ncc(OC)c(Nc3c[nH]nc3-c3nc4cc(CN5CCOCC5)ccc4[nH]3)n2)c1F [Compound 60, 2-(3-Ethynyl-2,6-difluorophenyl)-5-methoxy-N-(3-(5-(morpholinomethyl)-1H-benzo[d]imidazol-2-yl)-1H-pyrazol-4-yl)pyrimidin-4-amine] | ≤ 100 | ≤ 1000 |
| C#Cc1cccc(-c2nccc(Nc3c[nH]nc3-c3nc4cc(CN5CCOCC5)ccc4[nH]3)n2)c1 [Compound 42, 2-(3-Ethynylphenyl)-N-(3-(5-(morpholinomethyl)-1H-benzo[d]imidazol-2-yl)-1H-pyrazol-4-yl)pyrimidin-4-amine] | ≤ 100 | 1000 to 5010 |
| c1ccc(COc2nccc(Nc3c[nH]nc3-c3nc4cc(CN5CCOCC5)ccc4[nH]3)n2)cc1 [Compound 18, 2-(benzyloxy)-N-(3-(5-(morpholinomethyl)-1H-benzo[d]imidazol-2-yl)-1H-pyrazol-4-yl)pyrimidin-4-amine] | 100 to 501 | 1000 to 5010 |
| Fc1c(Cl)cccc1-c1nccc(Nc2c[nH]nc2-c2nc3cc(CN4CCOCC4)ccc3[nH]2)n1 [Compound 45, 2-(3-Chloro-2-fluorophenyl)-N-(3-(5-(morpholinomethyl)-1H-benzo[d]imidazol-2-yl)-1H-pyrazol-4-yl)pyrimidin-4-amine] | ≤ 100 | 1000 to 5010 |
| COc1cnc(-c2cccc(Cl)c2)nc1Nc1c[nH]nc1-c1nc2cc(CN3CCOCC3)ccc2[nH]1 [Compound 51, 2-(3-Chlorophenyl)-5-methoxy-N-(3-(5-(morpholinomethyl)-1H-benzo[d]imidazol-2-yl)-1H-pyrazol-4-yl)pyrimidin-4-amine] | ≤ 100 | ≤ 1000 |
| c1ccc(-c2nccc(Nc3c[nH]nc3-c3nc4cc(CN5CCOCC5)ccc4[nH]3)n2)cc1 [Compound 16, N-(3-(5-(morpholinomethyl)-1H-benzo[d]imidazol-2-yl)-1H-pyrazol-4-yl)-2-phenylpyrimidin-4-amine] | 100 to 501 | 1000 to 5010 |
| C#Cc1cccc(-c2ncc(OC)c(Nc3c[nH]nc3-c3nc4cc(CN5CCOCC5)ccc4[nH]3)n2)c1 [Compound 52, 2-(3-Ethynylphenyl)-5-methoxy-N-(3-(5-(morpholinomethyl)-1H-benzo[d]imidazol-2-yl)-1H-pyrazol-4-yl)pyrimidin-4-amine] | ≤ 100 | ≤ 1000 |
| Clc1cccc(-c2nccc(Nc3c[nH]nc3-c3nc4cc(CN5CCOCC5)ccc4[nH]3)n2)c1 [Compound 41, 2-(3-Chlorophenyl)-N-(3-(5-(morpholinomethyl)-1H-benzo[d]imidazol-2-yl)-1H-pyrazol-4-yl)pyrimidin-4-amine] | ≤ 100 | 1000 to 5010 |
| COc1cnc(-c2cccc(C(F)(F)F)c2)nc1Nc1c[nH]nc1-c1nc2cc(CN3CCOCC3)ccc2[nH]1 [Compound 53, 5-Methoxy-N-(3-(5-(morpholinomethyl)-1H-benzo[d]imidazol-2-yl)-1H-pyrazol-4-yl)-2-(3-(trifluoromethyl)phenyl)pyrimidin-4-amine] | 100 to 501 | ≤ 1000 |
| COc1cnc(-c2ccc(F)cc2)nc1Nc1c[nH]nc1-c1nc2cc(CN3CCOCC3)ccc2[nH]1 [Compound 61, 2-(4-Fluorophenyl)-5-methoxy-N-(3-(5-(morpholinomethyl)-1H-benzo[d]imidazol-2-yl)-1H-pyrazol-4-yl)pyrimidin-4-amine] | 100 to 501 | ≤ 1000 |
| C#Cc1cccc(-c2nccc(Nc3c[nH]nc3-c3nc4cc(CN5CCOCC5)ccc4[nH]3)n2)c1F [Compound 46, 2-(3-Ethynyl-2-fluorophenyl)-N-(3-(5-(morpholinomethyl)-1H-benzo[d]imidazol-2-yl)-1H-pyrazol-4-yl)pyrimidin-4-amine] | ≤ 100 | ≤ 1000 |
| COc1cnc(-c2c(F)ccc(Cl)c2F)nc1Nc1c[nH]nc1-c1nc2cc(CN3CCOCC3)ccc2[nH]1 [Compound 59, 2-(3-Chloro-2,6-difluorophenyl)-5-methoxy-N-(3-(5-(morpholinomethyl)-1H-benzo[d]imidazol-2-yl)-1H-pyrazol-4-yl)pyrimidin-4-amine] | ≤ 100 | ≤ 1000 |

Reference: EP4293019A1, “4-SUBSTITUTED (1H-BENZO[D]IMIDAZOL-2-YL)-1H-PYRAZOLES AS BUB1 INHIBITORS USEFUL FOR TREATING CANCERS” (Netherlands Translational Research Center Holding B.V., priority 2022, dated 2023)
